According to ChEMBL document CHEMBL1201862, “PubChem BioAssay data set” (2004):
The source made the active and inactive calls.

Key:
[1] = molecular target: Sphingosine 1-phosphate receptor 4 (Homo sapiens, UniProt O95977); assay: Fluorescence dose response cell-based high throughput screening assay for antagonists of the Sphingosine 1-Phosphate Receptor 4 (S1P4). [Related pubchem assays: 1524 (Confirmation in triplicates.), 1510 (Primary screen.)]; format: functional
[2] = fluconazole-exposed Candida albicans growth modulators – fluorescence, retest, confirmation (AID 2467); format: functional, cell-based
[3] = NIH-3T3 fibroblast cytotoxicity, dose response, cytotoxicity control, cell-based, fluorescence, Alamar Blue, secondary assay (AID 2327); format: functional;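 note: NIH-3T3 mouse fibroblasts cultured with fluconazole at 8 µg/mL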
[4] = microbe, parasite or virus in culture; format: functional; details: Mycobacterium tuberculosis
[5] = molecular target: Sphingosine 1-phosphate receptor 1 (Homo sapiens, UniProt P21453); format: functional;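 note: Tango beta-arrestin reporter U2OS cells stimulated with S1P near its EC80; inhibitor potency meaning antagonism of receptor activation by the natural agonist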
Sphingosine 1-phosphate receptor 1, sequence (P21453 whole entry): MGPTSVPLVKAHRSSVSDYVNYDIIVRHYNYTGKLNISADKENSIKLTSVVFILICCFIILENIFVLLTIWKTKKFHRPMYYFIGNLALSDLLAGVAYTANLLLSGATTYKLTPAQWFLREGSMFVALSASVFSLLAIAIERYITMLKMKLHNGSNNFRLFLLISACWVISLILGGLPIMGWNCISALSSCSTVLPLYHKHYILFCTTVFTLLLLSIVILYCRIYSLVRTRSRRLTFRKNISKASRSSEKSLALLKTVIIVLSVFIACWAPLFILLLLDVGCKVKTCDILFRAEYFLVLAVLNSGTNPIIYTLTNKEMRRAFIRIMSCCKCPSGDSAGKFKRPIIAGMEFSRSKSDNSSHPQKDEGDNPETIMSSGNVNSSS

[6] = molecular target: T1, Heat shock factor protein 1 (Mus musculus, UniProt P38532); assay: decrease of HSF1-responsive luciferase luminescence – cell-based, NIH3T3, dose retest, confirmation (AID 2382); format: functional;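 note: NIH3T3 fibroblasts with HSF1-driven luciferase reporter stressed by proteasome inhibitor MG132; luminescence from HSF1-driven luciferase expression after 8 hours of MG132 stress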
T1 sequence (P38532 whole entry): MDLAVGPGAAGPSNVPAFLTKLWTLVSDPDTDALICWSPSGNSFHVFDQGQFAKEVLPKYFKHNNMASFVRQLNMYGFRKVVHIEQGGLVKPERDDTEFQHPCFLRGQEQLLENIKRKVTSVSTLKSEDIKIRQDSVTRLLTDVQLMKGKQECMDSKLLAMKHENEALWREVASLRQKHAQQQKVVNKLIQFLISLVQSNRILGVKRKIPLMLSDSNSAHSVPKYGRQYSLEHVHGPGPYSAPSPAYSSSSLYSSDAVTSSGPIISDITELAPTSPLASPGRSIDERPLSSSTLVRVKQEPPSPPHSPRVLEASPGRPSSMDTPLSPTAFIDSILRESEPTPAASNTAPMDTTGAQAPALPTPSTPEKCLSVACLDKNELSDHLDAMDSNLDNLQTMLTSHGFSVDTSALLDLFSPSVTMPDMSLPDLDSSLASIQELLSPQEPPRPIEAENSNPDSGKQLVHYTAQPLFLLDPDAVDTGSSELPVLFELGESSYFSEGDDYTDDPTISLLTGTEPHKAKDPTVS

INS1 = assay: INS-1E survival protection against cytokine death – cell-based, luminescence, retest, dose response (AID 449756); format: functional; details: Rattus norvegicus;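 note: cell death triggered by IL-1 beta plus TNF-alpha plus IFN-gamma mixture; protective hits raise ATP signal compared with cytokine alone wells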
[7] = molecular target: Heat shock protein HSP 90-alpha (Homo sapiens, UniProt P07900); format: functional, organism-based
Vasopressin V1a receptor = Vasopressin V1a receptor (Homo sapiens, UniProt P37288); assay: Fluorescence-based cell-based high throughput dose response screening assay for agonists of the vasopressin 1 receptor (V1R).; format: functional
Vasopressin V1a receptor, sequence (P37288 whole entry): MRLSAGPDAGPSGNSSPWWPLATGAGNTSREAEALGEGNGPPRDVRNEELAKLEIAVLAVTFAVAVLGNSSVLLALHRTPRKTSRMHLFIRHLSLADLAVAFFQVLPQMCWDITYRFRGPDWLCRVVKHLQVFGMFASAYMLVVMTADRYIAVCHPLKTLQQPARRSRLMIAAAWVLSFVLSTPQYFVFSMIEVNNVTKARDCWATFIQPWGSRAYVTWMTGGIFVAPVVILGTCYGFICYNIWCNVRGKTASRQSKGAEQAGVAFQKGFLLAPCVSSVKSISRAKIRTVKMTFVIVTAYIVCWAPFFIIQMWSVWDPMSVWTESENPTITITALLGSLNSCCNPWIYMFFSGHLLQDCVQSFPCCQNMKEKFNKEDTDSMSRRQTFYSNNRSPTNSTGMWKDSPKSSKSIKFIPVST

[8] = molecular target: T2, Zinc finger protein mex-5 (Caenorhabditis elegans, UniProt Q9XUB2); assay: potency of MEX-5 RNA-binding blockers – biochemical, C. elegans, fluorescence polarization, dose response (AID 1960)
T2 sequence (Q9XUB2 whole entry): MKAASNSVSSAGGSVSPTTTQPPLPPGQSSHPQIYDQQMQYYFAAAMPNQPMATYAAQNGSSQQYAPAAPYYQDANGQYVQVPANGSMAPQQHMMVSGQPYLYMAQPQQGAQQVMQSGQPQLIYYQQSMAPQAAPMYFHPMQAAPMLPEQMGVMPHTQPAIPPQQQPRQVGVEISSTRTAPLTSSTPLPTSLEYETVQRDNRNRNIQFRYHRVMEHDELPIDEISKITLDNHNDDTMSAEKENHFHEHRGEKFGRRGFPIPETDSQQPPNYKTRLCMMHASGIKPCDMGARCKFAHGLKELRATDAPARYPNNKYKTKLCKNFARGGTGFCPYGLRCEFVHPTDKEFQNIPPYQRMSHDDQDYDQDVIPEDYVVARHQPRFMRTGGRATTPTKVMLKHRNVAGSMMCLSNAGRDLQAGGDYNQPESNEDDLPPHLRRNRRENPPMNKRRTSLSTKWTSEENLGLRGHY

Oxytocin receptor = Oxytocin receptor (Homo sapiens, UniProt P30559); assay: Counterscreen for vasopressin 1 receptor (V1R) agonists: Fluorescence-based cell-based high throughput dose response assay for agonists of the Oxytocin Receptor (OXTR). [Related pubchem assays: 2435 (Primary screen (OXTR agonists in singlicate)), 434964 (Confirmation screen (V1R agonists in triplicate)), 434969 (Counterscreen (OXTR agonists in …; format: functional
Oxytocin receptor, sequence (P30559 whole entry, the tested form may be a part): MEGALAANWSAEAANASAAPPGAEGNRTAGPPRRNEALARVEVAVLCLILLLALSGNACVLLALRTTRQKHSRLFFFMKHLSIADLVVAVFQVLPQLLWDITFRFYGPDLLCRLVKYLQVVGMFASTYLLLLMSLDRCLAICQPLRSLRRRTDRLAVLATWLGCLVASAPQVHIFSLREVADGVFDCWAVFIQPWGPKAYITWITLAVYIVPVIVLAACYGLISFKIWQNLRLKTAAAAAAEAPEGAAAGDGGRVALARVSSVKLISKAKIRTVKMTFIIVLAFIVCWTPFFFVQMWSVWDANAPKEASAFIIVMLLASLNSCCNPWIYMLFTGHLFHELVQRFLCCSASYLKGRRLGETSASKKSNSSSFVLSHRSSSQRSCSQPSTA

[9] = molecular target: T3, RNA-binding protein pos-1 (Caenorhabditis elegans, UniProt G5EF15); assay: disruptors of C. elegans POS-1 RNA interaction – biochemical, fluorescence polarization, dose response (AID 1964);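 note: purified POS-1 fused to maltose binding protein made in E. coli; potency of compounds blocking POS-1 binding to fluorescent RNA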
T3 sequence (G5EF15 whole entry): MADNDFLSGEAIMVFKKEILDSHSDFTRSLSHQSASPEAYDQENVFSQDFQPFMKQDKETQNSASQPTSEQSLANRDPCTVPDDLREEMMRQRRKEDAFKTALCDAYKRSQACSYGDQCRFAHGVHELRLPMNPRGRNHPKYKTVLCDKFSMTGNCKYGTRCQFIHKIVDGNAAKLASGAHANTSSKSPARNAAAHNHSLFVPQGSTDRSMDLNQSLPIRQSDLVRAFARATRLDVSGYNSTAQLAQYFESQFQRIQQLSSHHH

Sphingosine 1-phosphate receptor 4, sequence (O95977 whole entry): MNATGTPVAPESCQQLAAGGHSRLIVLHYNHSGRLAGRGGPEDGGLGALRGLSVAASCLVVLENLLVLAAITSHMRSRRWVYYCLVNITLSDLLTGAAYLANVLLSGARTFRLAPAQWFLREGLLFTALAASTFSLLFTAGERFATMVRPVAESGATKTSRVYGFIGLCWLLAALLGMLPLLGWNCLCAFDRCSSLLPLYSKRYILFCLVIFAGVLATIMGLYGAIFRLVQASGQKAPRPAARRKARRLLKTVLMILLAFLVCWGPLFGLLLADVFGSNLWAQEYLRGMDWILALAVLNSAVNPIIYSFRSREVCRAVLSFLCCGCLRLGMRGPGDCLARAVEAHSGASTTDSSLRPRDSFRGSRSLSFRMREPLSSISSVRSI

## Cc1cc([N+](=O)[O-])c2ccccc2[n+]1[O-]
[1]
  IC50: 0.22 µM (active)
[2]
  EC50: 0.097 µM (active)
[3]
  EC50: 4.65 µM (inconclusive)
[4]
  CC50: < 0.16 µM (active)
[5]
  IC50: 3.28 µM (active)
[6]
  EC50: 6.35 µM (active)
INS1
  AC50: 2.24 µM (active)
[7]
  AC50: < 0.195 µM (active)

## Cc1cc(C)c(/C=C2\C(=O)Nc3ccccc32)[nH]1 [SEMAXANIB]
Vasopressin V1a receptor
  EC50: 12.1 µM (not active)
[8]
  EC50: > 300 µM (not active)
Oxytocin receptor
  EC50: 11.5 µM (not active)
[9]
  EC50: > 300 µM (not active)
